Experimental data published in patent publication US9573961B2, “Inhibitors of the renal outer medullary potassium channel” (Merck Sharp & Dohme Corp., priority 2012, dated 2017).
Read-outs that look alike come from different tables or passages of the source.

Columns and labels:
hROMK (hKir1.1) = hROMK (hKir1.1) (Homo sapiens (Human), UniProt P48048); assay: Thallium Flux Assay (ROMK channel functional thallium flux, FLIPR-Tetra); format: cell-based; conditions: read-out: Thallium Flux IC50
Summary of the method: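 HEK293 cells stably expressing hROMK loaded with FluxOR dye for 90 min, then incubated with compound for 30 min at 23-25 °C. Normalized to a 3 μM standard ROMK inhibitor as % fluorescence change.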

Kir1.1 (ROMK1) = Kir1.1 (ROMK1) (Homo sapiens (Human), UniProt P48048); assay: Electrophysiology Assay (whole cell voltage clamp, IonWorks Quattro); format: cell-based; conditions: block during voltage step to 0 mV
Sequence of Kir1.1 (ROMK1) (P48048 whole entry): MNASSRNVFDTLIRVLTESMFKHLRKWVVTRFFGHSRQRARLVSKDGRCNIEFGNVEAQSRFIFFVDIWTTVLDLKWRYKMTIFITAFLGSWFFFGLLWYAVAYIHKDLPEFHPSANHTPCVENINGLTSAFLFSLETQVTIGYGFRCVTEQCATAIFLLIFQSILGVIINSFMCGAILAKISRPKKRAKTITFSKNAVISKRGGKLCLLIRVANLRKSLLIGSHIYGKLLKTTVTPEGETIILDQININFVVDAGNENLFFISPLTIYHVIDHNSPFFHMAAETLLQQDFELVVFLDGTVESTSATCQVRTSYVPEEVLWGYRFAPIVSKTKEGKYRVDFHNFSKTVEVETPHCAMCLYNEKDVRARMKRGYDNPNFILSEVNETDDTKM
Summary of the method: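 CHO cells stably expressing the channel, induced overnight with 1 mM sodium butyrate, were recorded in amphotericin-perforated patch mode. The test pulse was a 100 ms step to 0 mV from −70 mV, then a −70 to +70 mV ramp, applied before and after a 6 min compound incubation. Current amplitudes were compared.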

[1] = HEK293 cells stably expressing hROMK (hKir1.1)
[2] = Chinese hamster ovary cells stably expressing Kir1.1, read-out: Electrophysiology IC50
[3] = Electrophysiology IC50, Chinese hamster ovary cells stably expressing Kir1.1

Sequence of hROMK (hKir1.1) (P48048 whole entry): as above

SMILES | IC50 (hROMK (hKir1.1); [1]) | IC50 (Kir1.1 (ROMK1); [2]) | IC50 (hROMK (hKir1.1)) | IC50 (Kir1.1 (ROMK1); [3])
Cc1c([C@@H]2CN3CCN(C(=O)Cc4c(F)cc(-n5cnnn5)cc4F)C[C@H]3CO2)ccc(F)c1C#N [Example 52, 3-[(3R,9aS)-8-{[2,6-difluoro-4-(1H-tetrazol-1-yl)phenyl]acetyl}octahydropyrazino[2,1-c][1,4]oxazin-3-yl]-6-fluoro-2-methylbenzonitrile] | 0.17 µM | 0.07 µM | – | –
Cc1c([C@@H]2CN3CCN(C(=O)Cc4c(F)cc(-n5cnnn5)cc4F)C[C@@H]3CO2)ccc(F)c1C#N [Example 53, 3-[(3R,9aR)-8-{[2,6-difluoro-4-(1H-tetrazol-1-yl)phenyl]acetyl}octahydropyrazino[2,1-c][1,4]oxazin-3-yl]-6-fluoro-2-methylbenzonitrile] | 0.18 µM | 0.11 µM | – | –
Cc1c([C@@H]2CN3CCN(C(=O)Cc4cc(F)c(-n5cnnn5)cc4F)C[C@@H]3CO2)ccc(F)c1C#N [Example 54, 3-[(3R,9aR)-8-{[2,5-difluoro-4-(1H-tetrazol-1-yl)phenyl]acetyl}octahydropyrazino[2,1-c][1,4]oxazin-3-yl]-6-fluoro-2-methylbenzonitrile] | – | – | 0.1 µM | 0.1 µM
Cc1c([C@@H]2CN3CCN(C(=O)Cc4cc(F)c(-n5cnnn5)cc4F)C[C@H]3CO2)ccc(F)c1C#N [Example 55, 3-[(3R,9aS)-8-{[2,5-difluoro-4-(1H-tetrazol-1-yl)phenyl]acetyl}octahydropyrazino[2,1-c][1,4]oxazin-3-yl]-6-fluoro-2-methylbenzonitrile] | 0.13 µM | – | – | 0.1 µM
Cc1c([C@@H]2CN3CCN(C(=O)Cc4cccc(-n5cnnn5)c4)C[C@@H]3CO2)ccc(F)c1C#N [Example 56, 6-fluoro-2-methyl-3-[(3R,9aR)-8-{[3-(1H-tetrazol-1-yl)phenyl]acetyl}octahydropyrazino[2,1-c][1,4]oxazin-3-yl]benzonitrile] | 0.2 µM | 0.06 µM | – | –
Cc1c([C@H]2CN3CCN(C(=O)Cc4cccc(-n5cnnn5)c4)C[C@@H]3CO2)ccc(F)c1C#N [Example 57, 6-fluoro-2-methyl-3-[(3S,9aR)-8-{[3-(1H-tetrazol-1-yl)phenyl]acetyl}octahydropyrazino[2,1-c][1,4]oxazin-3-yl]benzonitrile] | 0.14 µM | 0.05 µM | – | –
Cc1c([C@H]2CN3CCN(C(=O)Cc4cc(-n5cnnn5)ccc4F)C[C@@H]3CO2)ccc(F)c1C#N [Example 58, 6-fluoro-3-[(3S,9aR)-8-{[2-fluoro-5-(1H-tetrazol-1-yl)phenyl]acetyl}octahydropyrazino[2,1-c][1,4]oxazin-3-yl]-2-methylbenzonitrile] | 0.18 µM | 0.08 µM | – | –
Cc1c([C@@H]2CN3CCN(C(=O)Cc4cc(-n5cnnn5)ccc4F)C[C@@H]3CO2)ccc(F)c1C#N [Example 59, 6-fluoro-3-[(3R,9aR)-8-{[2-fluoro-5-(1H-tetrazol-1-yl)phenyl]acetyl}octahydropyrazino[2,1-c][1,4]oxazin-3-yl]-2-methylbenzonitrile] | 0.36 µM | 0.14 µM | – | –
Cc1c(CC(=O)N2CCN3C[C@@H](c4ccc(F)c(C#N)c4C)OC[C@H]3C2)cccc1-n1cnnn1 [Example 60, 6-fluoro-2-methyl-3-[(3R,9aR)-8-{[2-methyl-3-(1H-tetrazol-1-yl)phenyl]acetyl}octahydropyrazino[2,1-c][1,4]oxazin-3-yl]benzonitrile] | 0.44 µM | 0.42 µM | – | –
Cc1c(CC(=O)N2CCN3C[C@H](c4ccc(F)c(C#N)c4C)OC[C@H]3C2)cccc1-n1cnnn1 [Example 61, 6-fluoro-2-methyl-3-[(3S,9aR)-8-{[2-methyl-3-(1H-tetrazol-1-yl)phenyl]acetyl}octahydropyrazino[2,1-c][1,4]oxazin-3-yl]benzonitrile] | 0.34 µM | 0.24 µM | – | –
COc1ccc([C@H]2CN3CCN(C(=O)C4CCc5cc(-n6cnnn6)ccc54)C[C@H]3CO2)c(C)c1C#N (stereo partly drawn) [Example 62, 6-methoxy-2-methyl-3-[(3S,9aS)-8-{[5-(1H-tetrazol-1-yl)-2,3-dihydro-1H-inden-1-yl]carbonyl}octahydropyrazino[2,1-c][1,4]oxazin-3-yl]benzonitrile] | 0.2 µM | 0.65 µM | – | –
COc1ccc([C@@H]2CN3CCN(C(=O)C4CCc5cc(-n6cnnn6)ccc54)C[C@H]3CO2)c(C)c1C#N (stereo partly drawn) [Example 63, 6-methoxy-2-methyl-3-[(3R,9aS)-8-{[5-(1H-tetrazol-1-yl)-2,3-dihydro-1H-inden-1-yl]carbonyl}octahydropyrazino[2,1-c][1,4]oxazin-3-yl]benzonitrile] | 0.18 µM | 0.45 µM | – | –
COc1cc([C@@H]2CN3CCN(C(=O)C4CCc5cc(-n6cnnn6)ccc54)C[C@@H]3CO2)ccc1C#N (stereo partly drawn) [Example 64, 2-methoxy-4-[(3R,9aR)-8-{[5-(1H-tetrazol-1-yl)-2,3-dihydro-1H-inden-1-yl]carbonyl}octahydropyrazino[2,1-c][1,4]oxazin-3-yl]benzonitrile] | 0.27 µM | 0.21 µM | – | –
COc1cc([C@@H]2CN3CCN(C(=O)C4CCc5cc(-n6cnnn6)ccc54)C[C@H]3CO2)ccc1C#N (stereo partly drawn) [Example 65, 2-methoxy-4-[(3R,9aS)-8-{[5-(1H-tetrazol-1-yl)-2,3-dihydro-1H-inden-1-yl]carbonyl}octahydropyrazino[2,1-c][1,4]oxazin-3-yl]benzonitrile] | 0.4 µM | 0.35 µM | – | –
Cc1c([C@@H]2CN3CCN(C(=O)Cc4ccc(-n5cnnn5)cc4C#N)C[C@H]3CO2)ccc(F)c1C#N [Example 67, 3-[(3R,9aS)-8-{[2-cyano-4-(1H-tetrazol-1-yl)phenyl]acetyl}octahydropyrazino[2,1-c][1,4]oxazin-3-yl]-6-fluoro-2-methylbenzonitrile] | 0.13 µM | – | – | 0.17 µM
Cc1c([C@@H]2CN3CCN(C(=O)Cc4ccc(-n5cnnn5)cc4C#N)C[C@@H]3CO2)ccc(F)c1C#N [Example 68, 3-[(3R,9aR)-8-{[2-cyano-4-(1H-tetrazol-1-yl)phenyl]acetyl}octahydropyrazino[2,1-c][1,4]oxazin-3-yl]-6-fluoro-2-methylbenzonitrile] | 0.21 µM | – | – | 0.12 µM
Cc1c([C@@H]2CN3CCN(C(=O)Cc4ccc(-n5cnnn5)cc4Cl)C[C@@H]3CO2)ccc(F)c1C#N [Example 69, 3-[(3R,9aR)-8-{[2-chloro-4-(1H-tetrazol-1-yl)phenyl]acetyl}octahydropyrazino[2,1-c][1,4]oxazin-3-yl]-6-fluoro-2-methylbenzonitrile] | – | – | 0.1 µM | 0.11 µM
Cc1c([C@@H]2CN3CCN(C(=O)Cc4ccc(-n5cnnn5)cc4Cl)C[C@H]3CO2)ccc(F)c1C#N [Example 70, 3-[(3R,9aS)-8-{[2-chloro-4-(1H-tetrazol-1-yl)phenyl]acetyl}octahydropyrazino[2,1-c][1,4]oxazin-3-yl]-6-fluoro-2-methylbenzonitrile] | 0.25 µM | – | – | 0.16 µM
Cc1c([C@H]2CN3CCN(C(=O)Cc4ccc(-n5cnnn5)cc4)C[C@H]3CO2)ccc2nonc12 [Example 75, (3S,9aS)-3-(4-methyl-2,1,3-benzoxadiazol-5-yl)-8-{[4-(1H-tetrazol-1-yl)phenyl]acetyl}octahydropyrazino[2,1-c][1,4]oxazine] | 0.21 µM | 0.12 µM | – | –
Cc1c([C@@H]2CN3CCN(C(=O)Cc4ccc(-n5cnnn5)cc4)C[C@H]3CO2)ccc2nonc12 [Example 76, (3R,9aS)-3-(4-methyl-2,1,3-benzoxadiazol-5-yl)-8-{[4-(1H-tetrazol-1-yl)phenyl]acetyl}octahydropyrazino[2,1-c][1,4]oxazine] | 0.22 µM | 0.22 µM | – | –
O=C(Cc1ccc(-n2cnnn2)cc1)N1CCN2C[C@@H](c3ccc4nonc4c3)OC[C@@H]2C1 [Example 77, (3R,9aS)-3-(2,1,3-benzoxadiazol-5-yl)-8-{[4-(1H-tetrazol-1-yl)phenyl]acetyl}octahydropyrazino[2,1-c][1,4]oxazine] | 0.15 µM | – | – | 0.05 µM
O=C(C1CCc2cc(-n3cnnn3)ccc21)N1CCN2C[C@@H](c3ccc4nonc4c3)OC[C@@H]2C1 (stereo partly drawn) [Example 78, (3R,9aS)-3-(2,1,3-benzoxadiazol-5-yl)-8-{[5-(1H-tetrazol-1-yl)-2,3-dihydro-1H-inden-1-yl]carbonyl}octahydropyrazino[2,1-c][1,4]oxazine] | 0.21 µM | 0.1 µM | – | –
Cc1c([C@@H]2CN3CCN(C(=O)Cc4c(F)cc(-n5cnnn5)cc4F)C[C@@H]3CO2)ccc2c1COC2=O [Example 79, 5-[(3R,9aR)-8-{[2,6-difluoro-4-(1H-tetrazol-1-yl)phenyl]acetyl}octahydropyrazino[2,1-c][1,4]oxazin-3-yl]-4-methyl-2-benzofuran-1(3H)-one] | 0.26 µM | 0.19 µM | – | –
Cc1c([C@@H]2CN3CCN(C(=O)Cc4ccc(-n5cnnn5)cc4)C[C@H]3CN2)ccc(F)c1C#N [Example 99, 3-((3R,9aR)-8-(2-(4-(1H-tetrazol-1-yl)phenyl)acetyl)octahydro-1H-pyrazino[1,2-a]pyrazin-3-yl)-6-fluoro-2-methylbenzonitrile] | 0.07 µM | 0.18 µM | – | –
Cc1c([C@H]2CN3CCN(C(=O)Cc4ccc(-n5cnnn5)cc4)C[C@H]3CN2)ccc2c1COC2=O [Example 100] | 0.43 µM | – | – | 0.25 µM
Cc1c([C@H]2CN3CCN(C(=O)Cc4ccc(-n5cnnn5)cc4)C[C@H]3CN2)ccc(F)c1C#N [Example 101] | 0.06 µM | – | – | 0.05 µM
